Laboratory results taken from patent publication US9388419B2 (The Regents of the University of Colorado, a body corporate, priority 2009, dated 2016).
Where two headings read alike, the source gives them in different places.

Key:
[1] = test system: Yeast strains (S288C background); format: cell-based, Saccharomyces cerevisiae
Procedure: The minimum inhibitory concentration (MIC) was determined anaerobically in a 96 well-plate format. […] A 1% (v/v) inoculum was introduced into a 5 ml culture of SD minimal media without vitamins. After the cells reached mid-exponential phase, the culture was diluted to an OD600 of 0.200. The cells were further diluted 1:5 and a 10 μL aliquot was used to inoculate each well of a 96 well plate (˜10^4 cells per well) to total volume of 100 uL. […] Plates were incubated for 72 hours at 30 C. […] Plates were sealed in biobag anaerobic chambers that contained gas generators for anaerobic conditions and incubated for 72 hours at 30 C.

[2] = test system: Yeast strains (S288C background); format: cell-based, Saccharomyces cerevisiae; remark: listed apart in the source
Procedure: The minimum inhibitory concentration (MIC) was determined aerobically in a 96 well-plate format. […] Media supplements were added according to levels reported in the Supplements Table, where specified. Overnight cultures of strains were grown in triplicate in 5 mL SD media with vitamins (Methods in Enzymology vol. 350, page 17 (2002)). A 1% (v/v) inoculum was introduced into a 5 ml culture of SD minimal media without vitamins. After the cells reached mid-exponential phase, the culture was diluted to an OD600 of 0.200. The cells were further diluted 1:5 and a 10 μL aliquot was used to inoculate each well of a 96 well plate (˜10^4 cells per well) to total volume of 100 uL. […] Plates were incubated for 72 hours at 30 C.

E. coli = format: cell-based, Escherichia coli; settings: aerobic
Procedure: (§1) For MIC evaluations, the final results are expressed in chemical agent concentrations determined by analysis of the stock solution by HPLC (i.e., see Subsection Mb).
The minimum inhibitory concentration (MIC) was determined aerobically in a 96 well-plate format. […] Media supplements were added according to levels reported in the Supplements Table, where specified. Overnight cultures of strains were grown in triplicate in 5 mL LB (with antibiotic where appropriate). A 1% (v/v) inoculum was introduced into a 5 ml culture of M9 minimal media.

[3] = test system: wild-type E. coli BW25113; assay: Toleragram / OD600 / doublings at 3HP 0-50 g/L, E. coli anaerobic; format: cell-based, Escherichia coli; settings: control E. coli, anaerobic conditions, 24 hours
Procedure: Overnight cultures of wild-type E. coli BW25113 were grown in triplicate in 5 mL standard LB medium. 100 uL of overnight cultures were used to inoculate triplicate 5 mL samples of M9 minimal medium+3HP, containing 47.7 mM Na2HPO4, 22 mM KH2PO4, 8.6 mM NaCl, 18.7 mM NH4Cl, 2 mM MgSO4, 0.1 mM CaCl2, and 0.4% glucose, with 3HP concentrations ranging from 0-50 g/L. Starting OD600 ranged from 0.02-0.08. Cultures were sparged with CO2 for 10 seconds, sealed, and incubated at 37 C for about 24 hours. OD600 was recorded every 1-2 hours during the first 8 hours with a final OD600 recorded at about 24 hours. For each data point the sample was opened, sampled, re-sparged with CO2, and sealed once again. Maximum specific growth rates (μmax) were calculated by determining the optimal fit of exponential trend lines with OD data for the evaluation period. Specific changes in OD600 over approximately 24 hours (Δ24hrOD600) were calculated as the difference in t=24 hr and t=0 optical density, Δ24hrOD600=(ODt=24)−(ODt=0). Specific number of doublings (Nd) were calculated by solving for N in the equation 2^N=(ODt=24)/(ODt=0).

B. subtilis = assay: MIC protocol B. subtilis aerobic (Common Methods, M9 media + glutamate, 24 hours); format: cell-based, Bacillus subtilis; settings: strain BSX_0003.0 (pWH1520, control), M9 + glu + trp + 1 mM Xylose
Procedure: as §1
The minimum inhibitory concentration (MIC) was determined aerobically in a 96 well-plate format. […] Media supplements were added according to levels reported in the Supplements Table where specified. Overnight cultures of strains were grown in triplicate in 5 mL LB (with antibiotic where appropriate). A 1% (v/v) inoculum was introduced into a 5 ml culture of M9 minimal media+glutamate.

## O=C(O)CCO [3-HP, 3-hydroxypropionic acid]
[1]; strain YX-CJR-005 (pYes2.1-Met6) versus YX-CJR-001, anaerobic
  % Increase Over Control: 50%
[1]; strain YX-CJR-008 (pyes2.1-ILV1) versus YX-CJR-001, anaerobic
  % Increase Over Control: 50%
[2]; S288C, SC media, no supplement, versus SD control, aerobic
  % Increase Over Control: 33%
[2]; strain YX-022 (pyes2.1-Aro3 pRS425-ILV6) versus control, aerobic
  % Increase Over Control: 50%
[2]; strain YX-CJR-010 (pyes2.1-Thr1) versus YX-CJR-001, aerobic
  % Increase Over Control: 50%
[2]; strain YX-CJR-014 (pyes2.1-arg2) versus YX-CJR-001, aerobic
  % Increase Over Control: 50%
[2]; strain YX-CJR-017 (pyes2.1-Aro7) versus YX-CJR-001, aerobic
  % Increase Over Control: 75%
E. coli; strain BX_00301.0: BW25113 wild type + pSmart-LC-Kan-folA-C1, M9 + Kan 20 μg/mL
  % Increase Over Control: 40%
E. coli; strain BX_00302.0: BW25113 wild type + pSmart-LC-Kan-folA-ORF, M9 + Kan 20 μg/mL
  % Increase Over Control: 20%
E. coli; strain BX_00304.0: BW25113 wild type + pSmart-LC-Kan-menA-ORF, M9 + Kan 20 μg/mL
  % Increase Over Control: 40%
E. coli; strain BX_00305.0: BW25113 wild type + pSmart-LC-Kan-pheA-C1, M9 + Kan 20 μg/mL
  % Increase Over Control: 40%
E. coli; strain BX_00307.0: BW25113 wild type + pSmart-LC-Kan-tyrA-C1, M9 + Kan 20 μg/mL
  % Increase Over Control: 40%
E. coli; strain BX_00309.0: BW25113 wild type + pSmart-LC-Kan-cynTS, M9 + Kan 20 μg/mL
  % Increase Over Control: 40%
E. coli; strain BX_00310.0: BW25113 wild type + pSmart-LC-Kan-glyA, M9 + Kan 20 μg/mL
  % Increase Over Control: 40%
E. coli; strain BX_00312.0: BW25113 wild type + pSmart-LC-Kan-serA, M9 + Kan 20 μg/mL
  % Increase Over Control: 40%
E. coli; strain BX_00313.0: BW25113 wild type + pSmart-LC-Kan-folD, M9 + Kan 20 μg/mL
  % Increase Over Control: 20%
E. coli; strain BX_00314.0: BW25113 wild type + pSmart-LC-Kan-aroE, M9 + Kan 20 μg/mL
  % Increase Over Control: 40%
E. coli; strain BX_00315.0: BW25113 wild type + pSmart-LC-Kan-aroKB C1, M9 + Kan 20 μg/mL
  % Increase Over Control: 40%
E. coli; strain BX_00317.0: BW25113 wild type + pSmart-LC-Kan-ilvA operon, M9 + Kan 20 μg/mL
  % Increase Over Control: 40%
E. coli; strain BX_00318.0: BW25113 wild type + pSmart-LC-Kan-cysM, M9 + Kan 20 μg/mL
  % Increase Over Control: 40%
E. coli; strain BX_00319.0: BW25113 wild type + pK223-aroH, M9 + Amp 100 μg/mL + 1 mM IPTG
  % Increase Over Control: 50%
E. coli; strain BX_00321.0: BW25113 wild type + pK223-ct-his-thrA, M9 + Amp 100 μg/mL + 1 mM IPTG
  % Increase Over Control: 75%
E. coli; strain BX_00322.0: BW25113 wild type + pJ61-speFED, M9 + Kan 20 μg/mL
  % Increase Over Control: 40%
E. coli; strain BX_00323.0: BW25113 wild type + pJ61-aroG, M9 + Kan 20 μg/mL
  % Increase Over Control: 40%
E. coli; strain BX_00324.0: BW25113 wild type + pJ61-thrA, M9 + Kan 20 μg/mL
  % Increase Over Control: 40%
E. coli; strain BX_00325.0: BW25113 wild type + pJ61-asd, M9 + Kan 20 μg/mL
  % Increase Over Control: 40%
E. coli; strain BX_00326.0: BW25113 wild type + pJ61-ilvA, M9 + Kan 20 μg/mL
  % Increase Over Control: 40%
E. coli; strain BX_00327.0: BW25113 wild type + pJ61-cysM, M9 + Kan 20 μg/mL
  % Increase Over Control: 40%
E. coli; strain BX_00334.0: BW25113 wild type + pSmart-HC-Amp-cadA, M9 + Amp 100 μg/mL
  % Increase Over Control: 60%
E. coli; strain BX_00335.0: BW25113 wild type + pSmart-HC-Amp-prs, M9 + Amp 100 μg/mL
  % Increase Over Control: 40%
E. coli; strain BX_00336.0: BW25113 wild type + pSmart-HC-Amp-nrdAB, M9 + Amp 100 μg/mL
  % Increase Over Control: 40%
E. coli; strain BX_00337.0: BW25113 wild type + pSmart-HC-Amp-nrdEF, M9 + Amp 100 μg/mL
  % Increase Over Control: 40%
E. coli; strain BX_00352.0: BW25113 wild type + pSmart-LC-Kan-metC C1, M9 + Amp 100 μg/mL
  % Increase Over Control: 40%
E. coli; strain BX_00353.0: BW25113 wild type + pSmart-HC-Amp-metC, M9 + Amp 100 μg/mL
  % Increase Over Control: 80%
E. coli; strain BX_00354.0: BW25113 wild type + pSmart-HC-Amp-cynTS, M9 + Amp 100 μg/mL
  % Increase Over Control: 80%
E. coli; strain BX_00356.0: BW25113 wild type + pSmart-HC-Amp-LysA, M9 + Amp 100 μg/mL
  % Increase Over Control: 20%
E. coli; strain BX_00357.0: BW25113 wild type + pKK223-aroH*445, M9 + Amp 100 μg/mL + 1 mM IPTG
  % Increase Over Control: 50%
E. coli; strain BX_00358.0: BW25113 wild type + pKK223-aroH*447, M9 + Amp 100 μg/mL + 1 mM IPTG
  % Increase Over Control: 75%
E. coli; strain BX_00359.0: BW25113 wild type + pKK223-aroH*457, M9 + Amp 100 μg/mL + 1 mM IPTG
  % Increase Over Control: 75%
E. coli; strain BX_00361.0: BW25113 wild type + pACYC177 (Kan only)-cynTS, M9 + Kan 20 μg/mL
  % Increase Over Control: 40%
E. coli; strain BX_00362.0: BW25113 wild type + pACYC177 (Kan only)-aroH, M9 + Kan 20 μg/mL + 1 mM IPTG
  % Increase Over Control: 20%
E. coli; strain BX_00363.0: BW25113 wild type + pACYC177 (kan only)-speB, M9 + Kan 20 μg/mL
  % Increase Over Control: 40%
E. coli; strain BX_00364.0: BW25113 wild type + pACYC177 (Kan only)-metE (Version1) (SS090608_13), M9 + Kan 20 μg/mL + 1 mM IPTG
  % Increase Over Control: 40%
E. coli; strain BX_00365.0: BW25113 wild type + pACYC177 (Kan only)-metC (Version1) (SS090608_17), M9 + Kan 20 μg/mL
  % Increase Over Control: 40%
E. coli; strain BX_00368.0: BW25113 wild type + pBT-3-cynTS, M9 + Cm (20 μg/mL)
  % Increase Over Control: 20%
E. coli; strain BX_00370.0: BW25113 wild type + pBT-3-speB, M9 + Cm (20 μg/mL)
  % Increase Over Control: 20%
[3]
  cell density response to 3-HP compared with aerobic condition: relatively sharper and earlier drop
B. subtilis
  Avg 24 hr ΔOD600: 0.00
